Source: article PMC9322761, “Design, Synthesis and Biological Characterization of Histone Deacetylase 8 (HDAC8) Proteolysis Targeting Chimeras (PROTACs) with Anti-Neuroblastoma Activity” (International Journal of Molecular Sciences, 2022)

Key:
[1] = Non-enzymatic stability in assay medium (HPLC); settings: 37 °C, 10 µM, pH7.4
Procedure: Non-enzymatic stability of selected final compounds was determined using 10 µM concentration of the tested PROTACs in one of the following assay media; Dulbecco’s modified Eagle medium (DMEM) (50%)/dimethylsulfoxid (10%)/acetonitrile (40%) or DMEM (50%)/dimethylsulfoxid (10%)/methanol (40%) mixture at pH7.4. The formed solution mixtures were incubated for 0, 6, 12, and 24 h at 37 °C. Analyte decomposition was monitored by HPLC using XTerra RP18 column (3.5 mm, 3.9 mm × 100 mm) from the manufacturer Waters (Milford, MA, USA) and two LC-10AD pumps, a SPD-M10A VP PDA detector, and a SIL-HT autosampler, all from the manufacturer Shimadzu (Kyoto, Japan).

HDAC6 = molecular target: T1, HDAC6 (Homo sapiens, UniProt Q9UBN7); assay: HDAC6 degradation in SK-N-BE(2)-C cells (Western blot); settings: 6 h, up to 10 µM
T1 sequence (Q9UBN7 1-1215): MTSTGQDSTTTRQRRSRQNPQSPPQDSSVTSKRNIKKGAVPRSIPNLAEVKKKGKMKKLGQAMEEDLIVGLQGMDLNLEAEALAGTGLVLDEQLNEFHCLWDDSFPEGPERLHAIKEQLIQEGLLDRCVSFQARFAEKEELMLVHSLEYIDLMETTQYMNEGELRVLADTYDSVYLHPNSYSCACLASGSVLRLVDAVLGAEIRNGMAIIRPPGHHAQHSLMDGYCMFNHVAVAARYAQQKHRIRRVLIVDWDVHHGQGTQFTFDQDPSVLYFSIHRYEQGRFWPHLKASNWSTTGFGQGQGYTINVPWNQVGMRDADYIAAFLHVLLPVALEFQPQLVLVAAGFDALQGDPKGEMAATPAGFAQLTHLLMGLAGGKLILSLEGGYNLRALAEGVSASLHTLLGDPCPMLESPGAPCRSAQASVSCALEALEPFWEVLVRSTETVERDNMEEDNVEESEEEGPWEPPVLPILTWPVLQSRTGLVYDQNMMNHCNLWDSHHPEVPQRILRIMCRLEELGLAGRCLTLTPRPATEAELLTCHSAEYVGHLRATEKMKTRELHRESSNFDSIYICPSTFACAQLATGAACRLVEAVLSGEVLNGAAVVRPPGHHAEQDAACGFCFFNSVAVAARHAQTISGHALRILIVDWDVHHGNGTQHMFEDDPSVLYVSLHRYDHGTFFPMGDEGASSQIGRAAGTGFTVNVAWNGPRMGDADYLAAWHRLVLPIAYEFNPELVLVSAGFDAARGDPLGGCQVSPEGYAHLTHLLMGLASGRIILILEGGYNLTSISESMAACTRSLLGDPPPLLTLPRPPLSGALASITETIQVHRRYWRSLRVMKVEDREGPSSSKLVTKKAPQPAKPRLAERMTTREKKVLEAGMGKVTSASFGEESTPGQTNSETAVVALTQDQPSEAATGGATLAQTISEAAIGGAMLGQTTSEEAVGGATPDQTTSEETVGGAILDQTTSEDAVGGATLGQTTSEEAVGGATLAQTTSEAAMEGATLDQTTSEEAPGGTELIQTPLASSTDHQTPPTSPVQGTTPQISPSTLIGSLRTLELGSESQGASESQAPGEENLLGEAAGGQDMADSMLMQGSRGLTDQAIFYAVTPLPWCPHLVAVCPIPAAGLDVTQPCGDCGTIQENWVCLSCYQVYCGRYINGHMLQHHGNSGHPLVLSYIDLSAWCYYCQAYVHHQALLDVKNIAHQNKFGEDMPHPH
Procedure: Figure 6 (A) SK-N-BE(2)-C neuroblastoma cells were treated for indicated time points with 10 µM of PROTACs. Degradation of HDAC8 and acetylation of HDAC8 target was analyzed via Western blot. […] Acetylation of HDAC8 target SMC3 and HDAC6 target tubulin, as well as total HDAC8 levels, were assessed by Western blot. Quantified ac-SMC3 or ac-tubulin expression, respectively, was normalized to the respective tubulin loading control and to the solvent control (DMSO). This quantification is reflected by the numbers below each blot. […] Total HDAC6, total HDAC1, total HDAC8, and acetyl-histone H4 expression levels, were assessed by Western blot. Total GAPDH protein levels served as a loading control (LC). * unspecific bands obtained through reprobing of the membrane.
HDAC6 degradation and tubulin hyperacetylation by PROTACs and control compounds
Left: SK-N-BE(2)-C neuroblastoma cells were treated for 6 h with indicated PROTACs (10 µM
each). Total HDAC6, acetyl-tubulin and total tubulin (LC #1: loading control #1) expression levels,
were assessed by western blot. Total GAPDH protein levels served as a second loading control
(LC #2). Right: presentation of quantified acetyl-tubulin levels, normalized to the DMSO control

HDAC1 = HDAC1 (Homo sapiens, UniProt Q13547); assay: HDAC1 degradation in SK-N-BE(2)-C cells (Western blot); settings: 6 h, up to 10 µM
HDAC1, sequence (Q13547 whole entry): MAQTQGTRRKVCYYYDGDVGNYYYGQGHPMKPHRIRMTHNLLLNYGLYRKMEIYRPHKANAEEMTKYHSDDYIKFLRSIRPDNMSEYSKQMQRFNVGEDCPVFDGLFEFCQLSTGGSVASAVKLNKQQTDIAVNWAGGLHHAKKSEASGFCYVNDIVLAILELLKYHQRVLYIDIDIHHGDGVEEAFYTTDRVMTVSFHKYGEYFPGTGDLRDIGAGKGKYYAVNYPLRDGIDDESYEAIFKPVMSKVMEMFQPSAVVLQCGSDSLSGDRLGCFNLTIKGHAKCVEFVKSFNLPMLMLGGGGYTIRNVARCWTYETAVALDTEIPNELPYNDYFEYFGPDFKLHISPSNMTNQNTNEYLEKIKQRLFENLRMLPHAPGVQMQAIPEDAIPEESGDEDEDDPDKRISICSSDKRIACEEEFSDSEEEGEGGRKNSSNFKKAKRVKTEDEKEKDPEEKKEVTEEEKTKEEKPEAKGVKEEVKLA
Procedure: Total HDAC6, total HDAC1, total HDAC8, and acetyl-histone H4 expression levels, were assessed by Western blot. Total GAPDH protein levels served as a loading control (LC). * unspecific bands obtained through reprobing of the membrane.

## COc1ccc(C(=O)NO)cc1NC(=O)c1ccc(NC(=O)CCCCCCCNc2cccc3c2C(=O)N(C2CCC(=O)NC2=O)C3=O)cc1 (stereo not shown) [CRBN_1b]
[1]; 6 h
  Non-enzymatic stability, compound remaining: 100.0%
[1]; 24 h
  Non-enzymatic stability, compound remaining: 91.6%
HDAC6
  HDAC6 degradation: do not degrade
HDAC1
  HDAC1 degradation: do not degrade
